Assays:
[1] = system: rats; assay: Study 001–1 acute subcutaneous toxicity in rats; format: in vivo, rat
Protocol: (§1) Toxicology. We performed toxicology studies for SNV that consisted of acute subcutaneous, intravenous and oral toxicity in rats, acute dermal toxicity in rabbits, skin sensitization using adjuvant and patch test in guinea pigs, and single and repeated (for 13 weeks) dose toxicity studies in rats. The latter was a 90-days repeated dose toxicity study, consisting of SNV once a day at three different doses to the penis and vagina of male and female rats, respectively. The compound was tested for the treatment of erectile dysfunction. The active dose (7 µg SNV) was chosen as the lowest dose for the study. The highest dosage group in the repeated dose toxicity study received 3,500 µg ([Gozes et al., 1994]). For study 001 (parts 1 through 3), the 1× dose consisted of 0.5 mg SNV dissolved in 7.1 ml vehicle (3.55 ml 10% Sefsol [glycerin monocaprylate] + 3.55 ml isopropanol) and 100µl/animal were administered; the 1000X dose consisted of 91 mg SNV dissolved in 1.3 ml vehicle (0.65 ml 10% Sefsol +0.65 ml isopropanol) and 100µl/animal were administered. For studies 002 through 004, the indicated doses of SNV (Table 1) were dissolved in 0.25 ml 10% Sefsol +0.25 ml 40% isopropanol (vehicle). The methodology for each of the toxicology studies is detailed in Table 1.

[2] = system: rats; assay: Study 004–1 repeated dose toxicity in rats: a 13-weeks study; format: in vivo, rat
Protocol: as §1
The study named 004-1, was the most protracted and detailed toxicology study. We carried it out in rats as a repeated dose toxicity study on target external organs, the penis and the vagina. The structure of the study included a detailed pathological evaluation of all body organs.

[3] = system: neuroprotection; settings: ref Ashur-Fabian et al., 1999; cited from earlier work
Source text: (§2) VIP derivatives and conjugates were designed to include a lipophilic moiety or a shortened VIP chain ([Gozes and Fridkin, 1992]; [Gozes et al., 1994]; [Gozes et al., 1995]; [Gozes et al., 1996]; [Gozes et al., 1999]). Stearyl-norleucine-VIP (Stearyl-Nle^17VIP, SNV) is a lipophilic compound consisting of a VIP molecule with an N-terminal attachment of stearic acid to increase cell and tissue bioavailability and an exchange of the oxidation-vulnerable methionine at position 17 with the stable norleucine.

[4] = matrix not given, ref Gozes et al., 1994, 1996; cited from earlier work
Source text: as §2

[5] = system: rats; assay: Study 001–3 acute oral toxicity in rats; format: in vivo, rat
Protocol: as §1

[6] = system: Guinea pigs; assay: Study 003 skin sensitization: adjuvant and patch test; format: in vivo, guinea pig; settings: SNV 7 mg/animal (1000X)
Protocol: as §1

[7] = system: M-CSF + RANKL treated pre-osteoclasts; assay: Osteoclastogenesis assay, direct effect in the absence of inflammation (TRAP staining); format: cell-based, mouse; settings: 10^-6 M, no inflammation, TRAP-positive multinucleated osteoclasts after 5 days, n=5, p<0.01
Protocol: Osteoclastogenesis assay. Preosteoclasts, prepared like the BMDMs, were plated in 96-well plates (7,000 cells per well, for TRAP staining, see below) or in 6-well plates (200,000 cells per well, for RNA) in standard medium supplemented with 20 ng/ml M-CSF and 50 ng/ml RANKL (R&D Systems, Minneapolis, MN, United States). After 48 h, the medium was replaced by the conditioned medium of BMDM, supplemented with RANKL and M-CSF. Where indicated, 10^−6 M SNV or VIP were added. […], cells were stained using a TRAP kit (Sigma-Aldrich, St. Louis, MO, United States), and multinucleated (>3 nuclei) TRAP-positive cells were defined as osteoclasts. Images were acquired at an original magnification of ×4 (Evos FLC, Life Technologies, MS, United States). The number of osteoclasts and the total osteoclast area were measured using ImageJ software (National Institutes of Health, Bethesda, MD, United States).
FIGURE 3 Direct effect of VIP and SNV on osteoclastogenesis. (A) VPAC1 and (B) VPAC2 expression in M-CSF treated bone marrow-derived macrophages (Day 0) and M-CSF + RANKL treated pre-osteoclasts (Day 2) using RT-qPCR. […] (C-E) Osteoclastogenesis in the presence of 10^-6M VIP, SNV or vehicle only (control) performed in 96-well plates; TRAP-positive multinucleated osteoclasts were evaluated after 5 days of differentiation. […]

[8] = system: albino female rabbits; assay: Study 002 acute dermal toxicity in rabbits; format: in vivo, rabbit; settings: single dermal application, 7 mg/site (1000X)
Protocol: as §1

[9] = subcutaneous, 7 mg/rat (1000X, group 4)
[10] = daily topical for 13 weeks, all doses
[11] = oral, 7 µg/rat and 7 mg/rat groups

Substance: Stearyl–HSDAVFTDNYTRLRKQ-Nle-AVKKYLNSILN-NH2 [SNV, Stearyl-norleucine-VIP, lipophilic VIP derivative with N-terminal stearic acid and norleucine in place of methionine at position 17]
- Acute median lethal subcutaneous dose ([1]; S.D. rats, 6 males + 6 females per group, single injection close to penile or vaginal tissue, 14 observation days, 7 mg/rat = maximal practical dose): Under the conditions of this study, the acute median lethal subcutaneous dose of SNV was found to be greater the 7 mg/rat, which is the maximal practical dose
- Mortality ([1]; subcutaneous, 7 µg/rat (1×), 14 observation days): None
- Mortality ([1]; subcutaneous, 7 mg/rat (1000X), 14 observation days): None
- Reactions: body weight [1, 9]: significant weight loss until 8th day, returning to original weight on day 12–14
- Reactions: diarrhea [1, 9]: Diarrhea in 2 males of group 4 (1000X) 5–24 after injection, lasting for 2 days
- Reactions: skin necrosis ([1]; subcutaneous, affected treatment group(s) not specified): Necrosis of abdominal (male only) or penile skin on day 13–14 after injection
- Clinical signs (penile edema, erythema and staining): relation to dose ([2]; daily topical for 13 weeks, 7 µg, 0.7 mg and 3.5 mg/rat): not dose-related
- Mortality ([2]; daily topical for 13 weeks, 7 µg/rat (low dose)): None. Only one death took place in a male from the low dose group due to massive abdominal hemorrhage caused by a nephroblastoma
- Mortality ([2]; daily topical for 13 weeks, 0.7 mg/rat): None. Only one death took place in a male from the low dose group due to massive abdominal hemorrhage caused by a nephroblastoma
- Mortality ([2]; daily topical for 13 weeks, 3.5 mg/rat): None. Only one death took place in a male from the low dose group due to massive abdominal hemorrhage caused by a nephroblastoma
- Pathological evaluation of all body organs (macroscopic and microscopic changes) ([2]; daily topical for 13 weeks, all dosages): No drug-related macroscopic or microscopic changes
- Hematology and clinical chemistry parameters [2, 10]: No dose related or sex related biologically meaningful treatment effects
- Serious adverse effects, conclusion [2, 10]: did not cause any serious adverse effects at any of the doses tested
- Treatment-related adverse effects ([2]; daily topical on the sex organs for 13 weeks, 7 µg, 0.7 mg and 3.5 mg/rat, SPF S.D. rats, 10 males + 10 females per group): No related adverse effects were detected throughout the study
- Potency relative to VIP in neuroprotection [3]: 1000 fold
- Half-life [4]: 15 min
- Acute median oral lethal dose ([5]; oral by metal catheter, S.D. rats, 6 males + 6 females per group, 7 mg/rat = maximal practical dose): Under the conditions of this study, the acute median oral lethal dose of SNV was found to be greater the 7 mg/rat, which is the maximal practical dose
- Mortality [5, 11]: None
- Reactions [5, 11]: None
- Skin sensitization, conclusion ([6]; adjuvant and patch test): The study was designed to assess the degree of skin sensitization resulting from intradermal Freund’s complete adjuvant and patch application of SNV. The study showed that both SNV and vehicle alone have no skin sensitization properties
- Mortality ([6]; adjuvant and patch test, daily applications for 3 days): None
- Skin reactions ([6]; intradermal Freund's complete adjuvant and patch application, daily applications for 3 days, 3 males + 3 females per group): only slight erythema and edema within the application site
- Osteoclast differentiation (osteoclast number and total area) [7]: comparable inhibitory effect
- Dermal irritation, conclusion [8]: Under the conditions of this study, single dermal application of the vehicle did not cause irritation. The 1000X dose transient effect was barely perceptible
- Mortality ([8]; N = 4): None
- Rabbits with slight barely perceptible erythema ([8]; N = 4, disappeared within 72 h following application): 50%

Reference: article PMC8131842, “Therapeutic Potential of Vasoactive Intestinal Peptide and its Derivative Stearyl-Norleucine-VIP in Inflammation-Induced Osteolysis” (Frontiers in Pharmacology, 2021)
